Experiment [1] concerns the target T1, Group 10 secretory phospholipase A2 (Homo sapiens, UniProt O15496).
T1 sequence (O15496 whole entry): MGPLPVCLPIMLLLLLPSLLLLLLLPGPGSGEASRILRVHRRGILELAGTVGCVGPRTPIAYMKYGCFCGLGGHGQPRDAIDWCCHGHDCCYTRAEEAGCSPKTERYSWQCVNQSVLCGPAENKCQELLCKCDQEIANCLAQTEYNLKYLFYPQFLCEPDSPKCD
Put plainly: Inhibition of human sPLA2X using 1,2-bis(heptanoylthio) glycerophosphocholine substrate incubated for 30 mins.

Experiment [2] deals with T1, Group 10 secretory phospholipase A2. Put plainly: Binding affinity to sPLA2X (unknown origin).
Experiment [3] deals with T2, Group 10 secretory phospholipase A2 (Homo sapiens) (UniProt O15496).
T2 sequence (whole entry): T1 sequence (O15496 whole entry)
Put plainly: (§1) Binding affinity to sPLA2X (unknown origin) by NMR spectroscopy based displacement assay. Conditions: concentration not given here.

Experiment [4] addresses T1, Group 10 secretory phospholipase A2. The experiment is described as §1.

The structures appear in SMILES notation. Where only a bound is given, the exact number is not on record here.

For orientation: IC50 means the concentration that gives 50% inhibition. Higher therefore signals lower potency. Take `Cc1cc(-c2cc(C(N)=O)nn2C)c(C)s1`: in experiment [1], half-maximal inhibition (IC50) was put at 0.851 µM.

Molecule `Cc1sccc1-c1cc(C(N)=O)n[nH]1` had an IC50 in experiment [1] of 0.631 µM.

For the molecule `Cc1sc2ccccc2c1-c1cc(C(N)=O)nn1C`, in experiment [1], it took 0.851 µM to reach half-maximal inhibition (IC50). On to `Cc1sc(-c2ccccc2)cc1-c1cc(C(N)=O)nn1C`, for which, in experiment [1], the midpoint of inhibition, the IC50, lay at 1.2 µM.

Molecule `Cc1sc(C(C)C)cc1-c1cc(C(N)=O)n[nH]1` had an IC50 in experiment [1] of less than 0.0513 µM. The same measure, in the same setting: next, `Cc1sc2ccccc2c1-c1cc(C(N)=O)n[nH]1`: 0.174 µM; `Cc1sc(-c2ccccc2)cc1-c1cc(C(N)=O)n[nH]1`: 0.347 µM. Regarding `COc1ccc2c(C(O)C(N)=O)c(C)n(Cc3ccccc3)c2c1` (stereo not given), the IC50 in experiment [2] turned out to be 250 µM.

Molecule `NC(=O)c1cc(-c2cc(Cl)sc2Cl)[nH]n1` showed an IC50 in experiment [1] of 0.398 µM. The term inhibition denotes the relative decrease from the control value, in per cent. The molecule `Oc1nc(-c2ccccc2)c(-c2ccccc2)[nH]1` showed an inhibition in experiment [3] of 88%. Further, the IC50 in experiment [4] was 45 µM. Consider `Cc1cc(-c2cc(C(N)=O)n[nH]2)c(C)s1`, for which the IC50 in experiment [1] was 0.316 µM; in experiment [4], 20 µM. For the same molecule, the inhibition in experiment [3] came out at 57%. `NC(=O)c1cc(-c2ccccc2Cl)[nH]n1` showed an IC50 in experiment [1] of 9.33 µM. In experiment [3], `O=C(O)c1ccc(-n2ncc3ccccc3c2=O)cc1` yielded an inhibition of 76%. The molecule further came in with an IC50 in experiment [4] of 50 µM.

`O=C(O)c1csc(-c2ccc3c(c2)CCO3)n1` gave an inhibition in experiment [3] of 80%. For the same molecule, the IC50 in experiment [4] amounted to 70 µM.

In experiment [1], `Cc1ccccc1-c1cc(C(N)=O)n[nH]1` gave an IC50 of 2.75 µM.

These data come from ChEMBL document CHEMBL3352519, “Discovery of a novel pyrazole series of group X secreted phospholipase A2 inhibitor (sPLA2X) via fragment based virtual screening” (Bioorg Med Chem Lett, 2014).
